From patent US20250304620A1, “ANTIMICROBIAL PEPTIDE AND APPLICATION THEREOF” (priority 2023, published 2025)
Values after ≈ are worked out from the molar mass of the structure shown. Marks after values point to notes of the source that are not given here. Non-standard residues stand in square brackets, D forms with d. Residues, ends and D or L forms follow the SMILES beside them. d2Nal = N[C@H](Cc1ccc2ccccc2c1)C(=O)O

How the values were obtained:
[1] = tested on: Staphylococcus aureus (NRS 384); test: microbe, parasite or virus in culture; type: cell-based; conditions: NRS 384
Method in brief: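 CLSI broth microdilution with serial twofold dilutions gave MICs against S. aureus NRS 384, with 5 parallel replicates. Levofloxacin and the AMP Cbf-K16 served as positive controls.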

[2] = tested on: Methicillin-resistant Staphylococcus aureus (MRSA); type: cell-based; conditions: Methicillin-resistant
Method in brief: (§1)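 Antimicrobial peptide susceptibility is measured against clinically isolated resistant bacteria using the CLSI microdilution method.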

[3] = tested on: carbapenem-resistant Escherichia coli (CREC); type: cell-based; conditions: carbapenem-resistant (CREC)
Method in brief: as §1

[4] = tested on: carbapenem-resistant Klebsiella pneumoniae (CRKP); type: cell-based; conditions: carbapenem-resistant (CRKP)
Method in brief: as §1

[5] = tested on: carbapenem-resistant Pseudomonas aeruginosa (CRPA); type: cell-based; conditions: carbapenem-resistant (CRPA)
Method in brief: as §1

[6] = tested on: vancomycin-resistant Enterococcus (VRE); type: cell-based
Method in brief: as §1

[7] = tested on: Pseudomonas aeruginosa ATCC 27853; test: Injectable formulations on mice infected with peritonitis; type: in vivo, ICR mice; conditions: 1 mg/kg via tail vein, twice a day for 3 days, n = 10; for Average survival times (Days): observed for 14 d
Method in brief: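 ICR mice of both sexes (10 per group) infected intraperitoneally with 0.2 mL P. aeruginosa ATCC 27853 at 1×10^9 CFU/mL. Injectable formulations dosed by body weight via tail vein twice daily for 3 days; deaths and survival time recorded over 14 d.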

| Structure (SMILES) | MIC against Staphylococcus aureus (NRS 384) [1] [µg/mL] | MIC MRSA [2] [µg/mL] | MIC CREC [3] [µg/mL] | MIC CRKP [4] [µg/mL] | MIC CRPA [5] [µg/mL] | MIC VRE [6] [µg/mL] | Number of mice that died on each day after infection: day 1 [7] [Mouse] | Number of mice that died on each day after infection: day 2 [7] [Mouse] | Number of mice that died on each day after infection: day 3 [7] [Mouse] | Number of mice that died on each day after infection: day 4 [7] [Mouse] | Number of mice that died on each day after infection: day 5 [7] [Mouse] | Average survival times (Days) [7] |
| --- | --- | --- | --- | --- | --- | --- | --- | --- | --- | --- | --- | --- |
| CC(=O)N[C@H](CCCNC(=N)N)C(=O)N[C@H](CCCNC(=N)N)C(=O)N[C@H](CC(C)C)C(=O)N[C@H](CC(C)C)C(=O)N[C@H](Cc1ccc2ccccc2c1)C(=O)N[C@H](CCCNC(=N)N)C(=O)N[C@H](CC(C)C)C(=O)N[C@H](CCCCN)C(=O)N[C@H](Cc1ccc2ccccc2c1)C(=O)N[C@H](CCCNC(=N)N)C(=O)N[C@H](CCCCN)C(N)=O [LV-21] (Ac-[dR][dR][dL][dL][d2Nal][dR][dL][dK][d2Nal][dR][dK]-NH2) | 1 (≈ 0.597 µM) | 4 (≈ 2.39 µM) | 2 (≈ 1.19 µM) | 2 (≈ 1.19 µM) | 4 (≈ 2.39 µM) | 2 (≈ 1.19 µM) | 2 | 0 | 2 | 0 | 0 | 9.2*** Days |
| CC(=O)N[C@H](CCCNC(=N)N)C(=O)N[C@H](CCCCN)C(=O)N[C@H](CC(C)C)C(=O)N[C@H](CC(C)C)C(=O)N[C@H](Cc1ccc2ccccc2c1)C(=O)N[C@H](CCCNC(=N)N)C(=O)N[C@H](CC(C)C)C(=O)N[C@H](CCCCN)C(=O)N[C@H](Cc1ccc2ccccc2c1)C(=O)N[C@H](CCCNC(=N)N)C(=O)N[C@H](CCCNC(=N)N)C(N)=O [LV-22] (Ac-[dR][dK][dL][dL][d2Nal][dR][dL][dK][d2Nal][dR][dR]-NH2) | 1 (≈ 0.597 µM) | 2 (≈ 1.19 µM) | 8 (≈ 4.78 µM) | 2 (≈ 1.19 µM) | 8 (≈ 4.78 µM) | 4 (≈ 2.39 µM) | 1 | 1 | 0 | 1 | 1 | 9.6*** Days |
| CC(=O)N[C@H](CCCCN)C(=O)N[C@H](CCCNC(=N)N)C(=O)N[C@H](CC(C)C)C(=O)N[C@H](CC(C)C)C(=O)N[C@H](Cc1ccc2ccccc2c1)C(=O)N[C@H](CCCCN)C(=O)N[C@H](CC(C)C)C(=O)N[C@H](CCCCN)C(=O)N[C@H](Cc1ccc2ccccc2c1)C(=O)N[C@H](CCCCN)C(=O)N[C@H](CCCNC(=N)N)C(N)=O [LV-23] (Ac-[dK][dR][dL][dL][d2Nal][dK][dL][dK][d2Nal][dK][dR]-NH2) | 1 (≈ 0.618 µM) | 4 (≈ 2.47 µM) | 2 (≈ 1.24 µM) | 8 (≈ 4.94 µM) | 4 (≈ 2.47 µM) | 4 (≈ 2.47 µM) | 1 | 1 | 0 | 2 | 0 | 9.5*** Days |
| CC(=O)N[C@H](CCCNC(=N)N)C(=O)N[C@H](CCCNC(=N)N)C(=O)N[C@H](CC(C)C)C(=O)N[C@H](CC(C)C)C(=O)N[C@H](Cc1ccc2ccccc2c1)C(=O)N[C@H](CCCCN)C(=O)N[C@H](CC(C)C)C(=O)N[C@H](CCCCN)C(=O)N[C@H](Cc1ccc2ccccc2c1)C(=O)N[C@H](CCCCN)C(=O)N[C@H](CCCNC(=N)N)C(N)=O [LV-24] (Ac-[dR][dR][dL][dL][d2Nal][dK][dL][dK][d2Nal][dK][dR]-NH2) | 1 (≈ 0.607 µM) | 4 (≈ 2.43 µM) | 8 (≈ 4.86 µM) | 4 (≈ 2.43 µM) | 8 (≈ 4.86 µM) | 2 (≈ 1.21 µM) | 1 | 2 | 0 | 0 | 1 | 9.4*** Days |
